Entries after “also recorded” stand apart in the source; their conditions may differ.

The first assay deals with bacteria. Nature of the assay: Binding of targeting peptides to microorganisms (Table 3). Particulars: microorganism the targeting peptide binds; binding in aqueous buffers that varied with peptide solubility, preferably 1x PBS.
With “1T-188 (HRKDVYKK; Peptide with targeting and/or antimicrobial activity) [Peptide 1T-188]”, the “Target(s)” value was “S. sanguinis”. The same measure, in the same setting: as for “1T-192 (ILVLLALQVELDSKFQY; Peptide with targeting and/or antimicrobial activity) [Peptide 1T-192]”, the entry is “S. sanguinis”; as for “1T-193 (LMIFDKHANLKYKYGNRSFGVEAIM; Peptide with targeting and/or antimicrobial activity) [Peptide 1T-193]”, “S. sanguinis”. Turning to “1T-195 (AASGFTYCASNGVWHPY; Peptide with targeting and/or antimicrobial activity) [Peptide 1T-195]”, the “Target(s)” value was “S. mutans”. Same read-out and setting: as for “1T-196 (KPEKEKLDTNTLMKVVNKALSLFDRLLIKFGA; Peptide with targeting and/or antimicrobial activity) [Peptide 1T-196]”, the entry is “F. nucleatum; also recorded: S. sanguinis”. On the same count and under the same terms, as for “1T-198 (MPVSKKRYMLSSAYATALGICYGQVATDEKESEITAIPDLLDYLSVEEYLL; Peptide with targeting and/or antimicrobial activity) [Peptide 1T-198]”, the entry is “P. gingivalis; also recorded: S. epidermidis; also recorded: S. gordonii; also recorded: S. mitis; also recorded: S. mutans; also recorded: S. oralis; also recorded: S. sanguinis”.

“1T-199 (RAGRIKKLSQKEAEPFEN; Peptide with targeting and/or antimicrobial activity) [Peptide 1T-199]”: the “Target(s)” value is “S. sanguinis”.

Take “1T-201 (KRKHENVIVAEEMRVIKN; Peptide with targeting and/or antimicrobial activity) [Peptide 1T-201]”: the “Target(s)” value was “S. sanguinis”. Same read-out and setting: as for “1T-207 (SPLEKYGTGSMTALTFLLGCCLLVLSKKSR; Peptide with targeting and/or antimicrobial activity) [Peptide 1T-207]”, the entry is “F. nucleatum; also recorded: S. sanguinis”; as for “1T-215 (VCFKDISVFLSPFRGQEVLFCGKAKHSLIYVIGT; Peptide with targeting and/or antimicrobial activity) [Peptide 1T-215]”, “S. sanguinis”; as for “1T-216 (FFLNVIAIRIPHF; Peptide with targeting and/or antimicrobial activity) [Peptide 1T-216]”, “S. sanguinis”.

“1T-217 (MLSNVLSRSVVSPNVDIPNSMVILSPLLISISNYH; Peptide with targeting and/or antimicrobial activity) [Peptide 1T-217]”: the “Target(s)” value is on record as “F. nucleatum; also recorded: S. sanguinis”.

“1T-218 (KLIFAALGLVFLLIGLRDSRSK; Peptide with targeting and/or antimicrobial activity) [Peptide 1T-218]”: the “Target(s)” value is recorded as “F. nucleatum; also recorded: S. sanguinis”. On the same count and under the same terms, as for “1T-219 (RNINVSATFITEKSLV; Peptide with targeting and/or antimicrobial activity) [Peptide 1T-219]”, the entry is “S. sanguinis”; as for “1T-222 (RIEASLISAIMFSMFNAIVKFLQK; Peptide with targeting and/or antimicrobial activity) [Peptide 1T-222]”, “F. nucleatum; also recorded: S. sanguinis”; as for “1T-237 (EDPVPNHFTLRRNKKEKPSKS; Peptide with targeting and/or antimicrobial activity) [Peptide 1T-237]”, “S. sanguinis”. Consider “1T-239 (ADDLLNKRLTDLIMENAETVKTIDLDNSD; Peptide with targeting and/or antimicrobial activity) [Peptide 1T-239]”, for which the “Target(s)” value was “A. naeslundii; also recorded: S. gordonii; also recorded: S. mitis; also recorded: S. mutans; also recorded: S. oralis; also recorded: S. sanguinis”.

Turning to “1T-242 (KQVQNTTLIICGTVLLGILFKSYLKSQKSV; Peptide with targeting and/or antimicrobial activity) [Peptide 1T-242]”, the “Target(s)” value is recorded as “F. nucleatum; also recorded: S. sanguinis”.

On to “1T-248 (IGGALNSCG; Peptide with targeting and/or antimicrobial activity) [Peptide 1T-248]”, for which the “Target(s)” value is “S. sanguinis”.

For the substance “1T-249 (VFSVLKHTTWPTRKQSWHDFISILEYSAFFALVIFIFDKLLTLGLAELLKRF; Peptide with targeting and/or antimicrobial activity) [Peptide 1T-249]”, the “Target(s)” value is on record as “F. nucleatum; also recorded: S. sanguinis”. On the same count and under the same terms, as for “1T-250 (LVQGDTILIENHVGTPVKDDGKDCLIIREADVLAVVND; Peptide with targeting and/or antimicrobial activity) [Peptide 1T-250]”, the entry is “S. mitis; also recorded: S. mutans; also recorded: S. oralis”; as for “1T-252 (MKKNLKRFYALVLGFIIGCLFVSILIFIGY; Peptide with targeting and/or antimicrobial activity) [Peptide 1T-252]”, “F. nucleatum; also recorded: S. sanguinis”. The same measure, in the same setting: as for “1T-256 (KGKSLMPLLKQINQWGKLYL; Peptide with targeting and/or antimicrobial activity) [Peptide 1T-256]”, the entry is “S. sanguinis”; as for “1T-258 (TINIDDKVLDYLKKINSKAITIDLIGCAS; Peptide with targeting and/or antimicrobial activity) [Peptide 1T-258]”, “A. naeslundii; also recorded: F. nucleatum; also recorded: P. gingivalis; also recorded: T. denticola; also recorded: S. mitis; also recorded: S. mutans; also recorded: S. oralis”.

As to “1T-259 (EKLKKILLKLAVCGKAWYTL; Peptide with targeting and/or antimicrobial activity) [Peptide 1T-259]”, the “Target(s)” value is given as “F. nucleatum; also recorded: P. gingivalis; also recorded: T. denticola; also recorded: S. mitis; also recorded: S. mutans; also recorded: S. oralis; also recorded: S. sanguinis”. Still for that read-out and setting: as for “1T-260 (NILYFIHDENQWEPQKAEIFRGSIKHCAWLSS; Peptide with targeting and/or antimicrobial activity) [Peptide 1T-260]”, the entry is “A. naeslundii; also recorded: P. gingivalis; also recorded: S. epidermidis; also recorded: S. gordonii; also recorded: S. mitis; also recorded: S. mutans; also recorded: S. oralis; also recorded: S. sanguinis”; as for “1T-261 (SFEKNKIENNLKIAQAYIYIKPKPRICQA; Peptide with targeting and/or antimicrobial activity) [Peptide 1T-261]”, “F. nucleatum; also recorded: S. mutans; also recorded: S. oralis; also recorded: S. sanguinis”. As for “1T-264 (LEGKFYMAEDFDKTPECFKDYV; Peptide with targeting and/or antimicrobial activity) [Peptide 1T-264]”, the “Target(s)” value is recorded as “S. sanguinis”.

On to “1T-266 (RAGTWLVVDEIR; Peptide with targeting and/or antimicrobial activity) [Peptide 1T-266]”, for which the “Target(s)” value was “S. sanguinis”.

Regarding “1T-267 (RIKEERKNRSYKFFIWRLFDEKTGFI; Peptide with targeting and/or antimicrobial activity) [Peptide 1T-267]”, the “Target(s)” value is “A. naeslundii; also recorded: F. nucleatum; also recorded: P. gingivalis; also recorded: T. denticola; also recorded: S. mitis; also recorded: S. mutans; also recorded: S. oralis; also recorded: S. sanguinis”. As to “1T-268 (PITPKKEKCGLGTYAPKNPVFSKSRV; Peptide with targeting and/or antimicrobial activity) [Peptide 1T-268]”, the “Target(s)” value is recorded as “F. nucleatum; also recorded: S. mutans; also recorded: S. oralis; also recorded: S. sanguinis”. Still for that read-out and setting: as for “1T-269 (PLYVAAVEKINTAKKH; Peptide with targeting and/or antimicrobial activity) [Peptide 1T-269]”, the entry is “F. nucleatum; also recorded: S. mutans; also recorded: S. oralis; also recorded: S. sanguinis”; as for “1T-270 (VHEFDIQKILQNR; Peptide with targeting and/or antimicrobial activity) [Peptide 1T-270]”, “F. nucleatum; also recorded: S. mutans; also recorded: S. oralis; also recorded: S. sanguinis”; as for “1T-272 (QLAPIDKQLKAVKKIAFYESESTAAKAVTVA; Peptide with targeting and/or antimicrobial activity) [Peptide 1T-272]”, “F. nucleatum; also recorded: S. mutans; also recorded: S. oralis; also recorded: S. sanguinis”.

The same assay, now with this note: peptide binding in aqueous buffers varied by peptide solubility; preferably 1x PBS.
Take “1T-145 (VEAGKRNISLENIEKISKGLGISISELFKYIEEGEDKIG; Peptide with targeting and/or antimicrobial activity) [Peptide 1T-145]”: the “Target(s) (microorganism bound by the targeting peptide)” value is “S. mitis; also recorded: S. mutans; also recorded: S. oralis”. On the same count and under the same terms, as for “1T-154 (YFSFLEIVGMARR; Peptide with targeting and/or antimicrobial activity) [Peptide 1T-154]”, the entry is “P. gingivalis”.

With “1T-159 (IFSLHHFALICSEMGTFAVSKRAKYKWEVL; Peptide with targeting and/or antimicrobial activity) [Peptide 1T-159]”, the “Target(s) (microorganism bound by the targeting peptide)” value is “P. gingivalis”.

With “1T-170 (AYGKVFSMDIMLSENDKLIVLRISHHSAWH; Peptide with targeting and/or antimicrobial activity) [Peptide 1T-170]”, the “Target(s) (microorganism bound by the targeting peptide)” value is listed as “P. gingivalis”. On the same count and under the same terms, as for “1T-177 (GTNVPTQILGYSREERFDYEPAPEQR; Peptide with targeting and/or antimicrobial activity) [Peptide 1T-177]”, the entry is “P. gingivalis; also recorded: S. gordonii; also recorded: S. mitis; also recorded: S. mutans; also recorded: S. oralis; also recorded: S. salivarious; also recorded: S. sanguinis”.

“1T-185 (HYHFLLEFGFHKGDYLE; Peptide with targeting and/or antimicrobial activity) [Peptide 1T-185]”: the “Target(s) (microorganism bound by the targeting peptide)” value was “A. naeslundii; also recorded: F. nucleatum; also recorded: P. gingivalis”.

The values above are taken from patent publication US9597407B2, “Targeted antimicrobial moieties” (C3 Jian, Inc., priority 2009, dated 2017).
